Reference: ChEMBL document CHEMBL5058564, “EUbOPEN Chemogenomics Library 2 (Incucyte)” (2022)

Experiments:
Format in all cases: toxicity, cell-based
[1] = tested on: U2OS; experiment: Incucyte cell viability with U2OS; conditions: human, 10 µM, compound concentration 10 uM
[2] = tested on: Fibroblast; experiment: Incucyte cell viability with human fibroblast; conditions: 10 µM, compound concentration 10 uM
[3] = tested on: HEK-293T; experiment: Incucyte cell viability with HEK293T; conditions: human, 10 µM, compound concentration 10 uM
[4] = 0 h, replicate number 1, timepoint 0 hours
[5] = 0 h, replicate number 2, timepoint 0 hours
[6] = 6 h, replicate number 1, timepoint 6 hours
[7] = 12 h, replicate number 2, timepoint 12 hours
[8] = 18 h, replicate number 2, timepoint 18 hours
[9] = 6 h, replicate number 2, timepoint 6 hours
[10] = 12 h, replicate number 1, timepoint 12 hours
[11] = 18 h, replicate number 1, timepoint 18 hours
[12] = 24 h, replicate number 1, timepoint 24 hours
[13] = 24 h, replicate number 2, timepoint 24 hours
Note: unitless GR value; below 1 slowed growth and below 0 cell loss.

Row | SMILES | Growth Rate [1, 4] | Growth Rate [1, 5] | Growth Rate [1, 6] | Growth Rate [1, 7] | Growth Rate [1, 8] | Growth Rate [2, 6] | Growth Rate [2, 9] | Growth Rate [2, 10] | Growth Rate [2, 7] | Growth Rate [2, 11] | Growth Rate [2, 8] | Growth Rate [2, 12] | Growth Rate [2, 13] | Growth Rate [3, 6] | Growth Rate [3, 10] | Growth Rate [3, 11] | Growth Rate [3, 12] | Growth Rate [1, 10] | Growth Rate [1, 12] | Growth Rate [3, 7] | also measured
1 | COc1cc(C(=O)N2CC[C@@H](O)[C@@H](N)C2)cc2nc(-c3cc4ccccc4n3CC3CC3)n(C)c12.Cl | -0.04 | 0.15 | 0.61 | 0.98 | 0.99 | -0.98 | -0.57 | -0.8 | -0.18 | -0.63 | -0.01 | -0.52 | 0.15 | 0.71 | 0.85 | 0.88 | 0.77 | – | – | – | –
2 | Cc1cnc(CNCC2(F)CCN(C(=O)c3ccc(F)c(Cl)c3)CC2)nc1 | -0.59 | 0.21 | 0.35 | 0.96 | 0.78 | 0.38 | – | 0.81 | 0.62 | 0.86 | – | 0.5 | – | – | – | 1 | 0.91 | 0.56 | 0.79 | – | Growth Rate [1, 9]: 0.86; Growth Rate [1, 11]: 0.81; Growth Rate [1, 13]: 0.94; Growth Rate [2, 4]: 0.31; Growth Rate [2, 5]: 0.71; Growth Rate [3, 4]: 0.4; Growth Rate [3, 5]: 0.21
3 | CN(C)CCCc1cc(C(=O)Nc2ccc(-c3ccncc3)cc2)ccc1O.Cl.Cl | -0.09 | -0.87 | – | – | – | 0.34 | 0.16 | 0.34 | – | 0 | 0.66 | -0.07 | 0.69 | 0.98 | 0.69 | 0.69 | 0.67 | – | – | 0.93 | Growth Rate [2, 4]: 0.85; Growth Rate [2, 5]: 0.18; Growth Rate [3, 4]: 0.52; Growth Rate [3, 5]: 0.49; Growth Rate [3, 9]: 0.48; Growth Rate [3, 13]: 0.98
4 | CCN(Cc1ccncc1)C(=O)C(CO)c1ccccc1 (stereo not drawn) [TROPICAMIDE] | 0.73 | 0.44 | 0.58 | 0.99 | 0.92 | – | – | – | – | – | – | – | – | 0.92 | 0.97 | 0.93 | 0.88 | – | – | 0.95 | Growth Rate [2, 4]: 0.46; Growth Rate [2, 5]: -0.24; Growth Rate [3, 4]: 0.72; Growth Rate [3, 8]: 0.83; Growth Rate [3, 13]: 1
5 | CC(=O)O[C@H]1C(=O)[C@@]2(C)[C@H]([C@H](OC(=O)c3ccccc3)[C@]3(O)C[C@H](OC(=O)[C@H](O)[C@@H](NC(=O)c4ccccc4)c4ccccc4)C(C)=C1C3(C)C)[C@]1(OC(C)=O)CO[C@@H]1C[C@@H]2O [PACLITAXEL] | -0.24 | 0.29 | 0.37 | -0.2 | -0.14 | -0.93 | -0.73 | -0.65 | -0.32 | -0.57 | 0.02 | -0.4 | 0.16 | -0.58 | -0.24 | -0.17 | -0.03 | 0.12 | 0.07 | -0.18 | Growth Rate [1, 9]: -0.14; Growth Rate [1, 11]: 0.09; Growth Rate [1, 13]: -0.09; Growth Rate [3, 9]: -0.59; Growth Rate [3, 8]: -0.18; Growth Rate [3, 13]: -0.1
6 | C[C@@](Cc1c[nH]c2ccccc12)(NC(=O)Nc1ccc([N+](=O)[O-])cc1)C(=O)NCC1(c2ccccn2)CCCCC1 | 0.29 | – | 0.28 | -0.2 | -0.3 | -0.69 | -0.88 | -0.66 | -0.59 | -0.63 | -0.53 | -0.6 | -0.51 | -0.16 | -0.39 | -0.33 | -0.26 | -0.03 | -0.26 | -0.14 | Growth Rate [1, 9]: 0.12; Growth Rate [1, 11]: -0.21; Growth Rate [1, 13]: -0.21; Growth Rate [3, 9]: -0.01; Growth Rate [3, 8]: -0.15; Growth Rate [3, 13]: -0.13
7 | NC(=O)c1cccc(-c2cc(Nc3ccc(OC(F)(F)F)cc3)ncn2)c1 | – | – | – | – | 0.93 | -0.84 | 0.58 | -0.48 | 0.37 | -0.35 | 0.53 | -0.05 | 0.46 | -0.43 | 0.03 | 0.18 | 0.26 | 0.98 | 0.94 | 0.25 | Growth Rate [3, 9]: 0.03; Growth Rate [3, 8]: 0.3; Growth Rate [3, 13]: 0.48
8 | COCCn1c(C)c(C)s/c1=N\C(=O)C1C(C)(C)C1(C)C | 0.47 | -1 | – | – | 0.93 | – | – | – | – | – | – | – | – | – | – | – | – | – | 0.98 | 0.76 | Growth Rate [1, 11]: 1; Growth Rate [1, 13]: 0.97; Growth Rate [2, 4]: 0.65; Growth Rate [2, 5]: 0.2; Growth Rate [3, 4]: 0.71; Growth Rate [3, 9]: 0.77
9 | CC1=C(C)C(=O)C(C(C)(C)CC(=O)N(CCCCSC[C@H]2O[C@@H](n3cnc4c(N)ncnc43)[C@H](O)[C@@H]2O)Cc2cccc(-c3ccc(Cl)cc3)c2)=C(C)C1=O | – | – | 0.21 | 0.93 | 0.91 | -0.29 | 0.84 | 0.78 | – | – | – | – | – | 0.57 | 0.2 | 0.17 | 0.16 | 0.36 | 0.53 | – | Growth Rate [1, 9]: 0.98; Growth Rate [1, 11]: 0.51; Growth Rate [1, 13]: 0.95; Growth Rate [2, 4]: 0.23; Growth Rate [2, 5]: -0.71; Growth Rate [3, 4]: -0.9; Growth Rate [3, 5]: -1
